# Data taken from patent US20250361234A1 (NICO THERAPEUTICS, INC., priority 2022, published 2025).
# Target: T1, full-length SARM1 (FL-SARM1) (Homo sapiens, UniProt Q6SZW1)
# T1 sequence (Q6SZW1 28-724): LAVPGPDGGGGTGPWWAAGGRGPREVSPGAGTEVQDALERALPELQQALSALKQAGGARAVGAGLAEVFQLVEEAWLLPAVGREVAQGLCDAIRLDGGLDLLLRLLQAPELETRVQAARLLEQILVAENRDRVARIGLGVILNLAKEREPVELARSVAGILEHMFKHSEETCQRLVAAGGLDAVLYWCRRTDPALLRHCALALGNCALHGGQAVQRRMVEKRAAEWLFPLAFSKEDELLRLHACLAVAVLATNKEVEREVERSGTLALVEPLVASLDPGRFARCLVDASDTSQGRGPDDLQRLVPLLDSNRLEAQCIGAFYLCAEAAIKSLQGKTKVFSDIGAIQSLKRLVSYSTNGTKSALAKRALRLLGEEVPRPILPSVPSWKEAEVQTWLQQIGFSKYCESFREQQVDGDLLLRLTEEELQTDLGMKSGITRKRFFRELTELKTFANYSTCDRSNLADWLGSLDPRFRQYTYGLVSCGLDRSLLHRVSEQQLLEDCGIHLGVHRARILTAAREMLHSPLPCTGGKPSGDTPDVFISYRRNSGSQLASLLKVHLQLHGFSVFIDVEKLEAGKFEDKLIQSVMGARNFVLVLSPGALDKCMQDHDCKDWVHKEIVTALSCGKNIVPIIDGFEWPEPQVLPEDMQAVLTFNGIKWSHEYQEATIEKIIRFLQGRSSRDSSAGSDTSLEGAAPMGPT
# Assay: FL-SARM1 cellular lysate assay (NAD/NADH-Glo readout of remaining NAD+)
# Settings: SARM1 cellular lysate from transfected HEK293T cells, NAD+ and NMN, 11 point curve
# Method: Preparation of full-length SARM1 (FL-SARM1) lysate: HEK293T cells (ATCC: CRL-3216) were grown on 150 mm TC-treated dishes to 80-90% confluency in complete DMEM (Thermo Fisher: 11965175) supplemented with 10% HI-FBS (VWR: 10802-772), 1× Pen/Strep (Thermo Fisher: 15140122), 1× NEAA (Thermo Fisher: 1140050), 1× glutamax (Thermo Fisher: 35050061), and 1 mM sodium pyruvate (Thermo Fisher: 11360070)) at 37° C. and 5% CO2. One hour prior to transfection, the media was replaced with fresh, 37° C. complete DMEM (20 mL per one 150 mm dish) supplemented with additional 10 mM glucose (Alfa Aesar AAJ60067EQE). Per one 150 mm dish, 30 μg FL-SARM1 (SEQ. ID. 1; cloned in-house) plasmid was dissolved in 1 mL DMEM at ambient temperature and were mixed by inverting the tube 8-10 times. 90 μL of GenJet™ in vitro DNA transfection reagent (Ver2) was dissolved in 1 mL DMEM at ambient temperature and were mixed by inverting the tube 8-10 times. The plasmid and transfection agent solutions were combined, mixed by 8-10 inversions and incubated for 10 minutes at ambient temperature. 2 mL of this transfection mixture was added to each dish containing HEK293T cells as prepared above followed by a gentle mixing of 4-5 horizontal rotations. The dishes were incubated at 37° C. and 5% CO2 for 24 h. The dishes were removed from the incubator, the medium was aspirated and the cells were scraped off using cell scrapers in ice-cold 1× PBS (5 mL/dish, Thermo Fisher Scientific 10010023). The collected cells were centrifuged at 300 g for 5 minutes at 4° C. The supernatant was aspirated and the pellet was frozen at −80° C. until needed. The cell pellet from 30 dishes was dissolved in 30 mL 1× PBS supplemented with 4 tablets of Complete, Mini EDTA-free protease inhibitor cocktail at 4° C. This mixture was sonicated on ice for 10 minutes at 50% amplitude with a 1 second on/1 second off interval using a Model 120 sonicator (Thermo Fisher Scientific, FB120110). The lysate was centrifuged at 16000 g for 10 minutes at 4° C.
# To a white 384-well Proxiplate (PerkinElmer, PE-6008280) was added 50 nL/well of a DMSO solution containing test compounds followed by 7.5 mL/well of a 0.067 mg/mL solution of SARM1 cellular lysate in reaction buffer (DPBS containing CHAPSO (0.1%) and fatty acid free BSA (0.032%)). The plate was centrifuged for 1 minute at 1000 RPM and then placed in an incubator at 23° C. for 15 minutes. To the wells were added 2.5 mL/well of a solution containing 40 mM NAD^+ and 4 mM NMN in reaction buffer. The plate was centrifuged for 1 min at 1000 RPM, the plate was sealed and placed in an incubator at 23° C. for 3.5 hours before adding 3.5 mL/well of NAD/NADH-Glo™ solution (preparation as described by Promega using the extended detection protocol). The plate was centrifuged for 1 minute at 1000 RPM and then incubated at 23° C. for 20 minutes. 1 mL/well of a 3.625 mM solution of menadione in DMSO was added and the plate was centrifuged for 1 minute at 1000 RPM. […] Percent inhibition was calculated as follows:
# IC50 values were calculated from an 11 point curve using ½ log dilutions using a four-parameter logistic regression curve fit.
SMILES,IC50 (Activity (μM)) [µM],IC50 (Activity) [µM]
"Cc1nnc([C@]23C[C@H](C)C[C@H](C2)N3C(=O)Nc2cc(-c3cncc(F)c3)c(Cl)cc2F)o1 (single isomer, unassigned) [Example 133, cis-N-(4-chloro-2-fluoro-5-(5-fluoropyridin-3-yl)phenyl)-3-methyl-1-(5-methyl-1,3,4-oxadiazol-2-yl)-6-azabicyclo[3.1.1]heptane-6-carboxamide]",38,> 10
"Cc1ncc(-c2cc(NC(=O)[C@@H]3CC3(F)F)ccc2C)cn1 [Example 111, (1S)-2,2-difluoro-N-[4-methyl-3-(2-methylpyrimidin-5-yl)phenyl]cyclopropane-1-carboxamide]",20.4,> 10
"Cc1ccc(NC(=O)OC2CCC2)cc1-c1cncc(F)c1 [Example 126, cyclobutyl (3-(5-fluoropyridin-3-yl)-4-methylphenyl)carbamate]",20.7,> 10
"Cc1nnc([C@@]23C[C@@H](C)C[C@@H](C2)N3C(=O)Nc2ccc(Cl)c(-c3cncc(F)c3)c2)o1 (single isomer, unassigned) [Example 134, cis-N-[4-chloro-3-(5-fluoro-3-pyridinyl)phenyl]-3-methyl-1-(5-methyl-1,3,4-oxadiazol-2-yl)-6-azabicyclo[3.1.1]heptane-6-carboxamide]",0.02,0.0001 to 1
"CCc1ccc(NC(=O)N2[C@@H]3C[C@@H](C)C[C@H]2C3)cc1-c1cncc(F)c1 [Example 82, cis-N-(4-ethyl-3-(5-fluoropyridin-3-yl)phenyl)-3-methyl-6-azabicyclo[3.1.1]heptane-6-carboxamide]",0.02,0.0001 to 1
"Cc1ccc(NC(=O)N2CC3CC2c2ccccc23)cc1-c1cncc(F)c1 (stereo not shown) [Example 95, N-[3-(5-fluoropyridin-3-yl)-4-methylphenyl]-9-azatricyclo[6.2.1.02,7]undeca-2,4,6-triene-9-carboxamide]",0.2,0.0001 to 1
"Cc1ccc(NC(=O)N2C3CC2CC(F)(F)C3)cc1-c1cncc(F)c1 [Example 37, 3,3-difluoro-N-(3-(5-fluoropyridin-3-yl)-4-methylphenyl)-6-azabicyclo[3.1.1]heptane-6-carboxamide]",0.5,0.0001 to 1
"Cc1ccc(NC(=O)N2C3CCCC2C3)cc1-c1cncc(Cl)c1 [Example 117, N-[3-(5-chloro-3-pyridyl)-4-methyl-phenyl]-6-azabicyclo[3.1.1]heptane-6-carboxamide]",0.03,0.0001 to 1
"COc1ncccc1-c1cc(NC(=O)N2C3CCCC2C3)ccc1C [Example 68, N-(3-(2-methoxypyridin-3-yl)-4-methylphenyl)-6-azabicyclo[3.1.1]heptane-6-carboxamide]",2.5,1 to 10
"Cc1ccc(NC(=O)N2C3CCCC2C3)cc1-c1cccnc1C [Example 69, N-[4-methyl-3-(2-methylpyridin-3-yl)phenyl]-6-azabicyclo[3.1.1]heptane-6-carboxamide]",1.6,1 to 10
"Cc1ccc(NC(=O)C2CCCN2C2CCC2)cc1-c1cncc(F)c1 (racemic) [Example 103, 1-cyclobutyl-N-[3-(5-fluoropyridin-3-yl)-4-methylphenyl]pyrrolidine-2-carboxamide]",17.7,> 10
"O=C(Nc1ccc(C(F)(F)F)c(-c2cncc(F)c2)c1)N1C2CCCC1C2 [Example 75, N-(3-(5-fluoropyridin-3-yl)-4-(trifluoromethyl)phenyl)-6-azabicyclo[3.1.1]heptane-6-carboxamide]",1,1 to 10
"Cc1ccc(NC(=O)N2[C@@H]3C[C@H](C)C[C@H]2C3)cc1-c1cncc(F)c1 [Example 84, cis-N-(3-(5-fluoropyridin-3-yl)-4-methylphenyl)-3-methyl-6-azabicyclo[3.1.1]heptane-6-carboxamide]",0.007,0.0001 to 1
"Cc1ccc(NC(=O)N2C3C[C@H](OC(F)F)C[C@H]2C3)cc1-c1cncc(F)c1 [Example 56, trans-3-(difluoromethoxy)-N-(3-(5-fluoropyridin-3-yl)-4-methylphenyl)-6-azabicyclo[3.1.1]heptane-6-carboxamide]",0.09,0.0001 to 1
"COC[C@H]1C2CCC[C@H]1N2C(=O)Nc1ccc(C)c(-c2cncc(F)c2)c1 [Example 44, N-trans-(3-(5-fluoropyridin-3-yl)-4-methylphenyl)-7-(methoxymethyl)-6-azabicyclo[3.1.1]heptane-6-carboxamide]",17.2,> 10
"Cc1ccc(NC(=O)OC2CCC2)cc1-c1cccnc1 [Example 129, cyclobutyl N-(4-methyl-3-pyridin-3-ylphenyl)carbamate]",30.9,> 10
"C[C@@H]1CC2C[C@H](C1)N2C(=O)Nc1ccc(F)c(-c2cncc(F)c2)c1 (single isomer, unassigned) [Example 58, cis-N-(4-fluoro-3-(5-fluoropyridin-3-yl)phenyl)-3-methyl-6-azabicyclo[3.1.1]heptane-6-carboxamide]",0.3,0.0001 to 1
"Cc1ccc(NC(=O)N2C3C[C@@H]2C[C@@](C)(C#N)C3)cc1-c1cncc(F)c1 (stereo in doubt) [Example 43, cis-3-cyano-N-(3-(5-fluoropyridin-3-yl)-4-methylphenyl)-3-methyl-6-azabicyclo[3.1.1]heptane-6-carboxamide]",0.5,0.0001 to 1
"Cc1ccc(NC(=O)C2C3CC2CN(CC(F)(F)F)C3)cc1-c1cncc(F)c1 (stereo not shown) [Example 101, N-[3-(5-fluoropyridin-3-yl)-4-methylphenyl]-3-(2,2,2-trifluoroethyl)-3-azabicyclo[3.1.1]heptane-6-carboxamide]",0.8,0.0001 to 1
"Cc1ccc(NC(=O)N2C3C[C@H](OC(F)F)C[C@@H]2C3)cc1-c1cncc(F)c1 [Example 29, cis-3-(difluoromethoxy)-N-(3-(5-fluoropyridin-3-yl)-4-methylphenyl)-6-azabicyclo[3.1.1]heptane-6-carboxamide]",0.1,0.0001 to 1
"Cc1nnc([C@]23C[C@H](C)C[C@H](C2)N3C(=O)Nc2cc(-c3cncc(F)c3)c(C)cc2F)o1 (single isomer, unassigned) [Example 125, cis-N-(2-fluoro-5-(5-fluoropyridin-3-yl)-4-methylphenyl)-3-methyl-1-(5-methyl-1,3,4-oxadiazol-2-yl)-6-azabicyclo[3.1.1]heptane-6-carboxamide]",0.025,0.0001 to 1
"Cc1ccc(NC(=O)N2C3C[C@H](CF)C[C@@H]2C3)cc1-c1cncc(F)c1 [Example 1, cis-3-(fluoromethyl)-N-(3-(5-fluoropyridin-3-yl)-4-methylphenyl)-6-azabicyclo[3.1.1]heptane-6-carboxamide]",0.06,0.0001 to 1
"Cc1ccc(NC(=O)N2C3CCC2CC3)cc1-c1cncc(F)c1 [Example 97, N-[3-(5-fluoropyridin-3-yl)-4-methylphenyl]-7-azabicyclo[2.2.1]heptane-7-carboxamide]",0.4,0.0001 to 1
"Cc1ccc(NC(=O)N2CC[C@@H](C)C[C@H]2C)cc1-c1cncc(F)c1 (racemic) [Example 119, cis-N-(3-(5-fluoropyridin-3-yl)-4-methylphenyl)-2,4-dimethylpiperidine-1-carboxamide]",1.1,1 to 10
"CCc1ccc(NC(=O)N2[C@@H]3C[C@H](C)C[C@H]2C3)cc1-c1cncc(F)c1 [Example 76, trans-N-(4-ethyl-3-(5-fluoropyridin-3-yl)phenyl)-3-methyl-6-azabicyclo[3.1.1]heptane-6-carboxamide]",0.03,0.0001 to 1
"C[C@@H]1CC2C[C@H](C1)N2C(=O)Nc1ccc(C(F)(F)F)c(-c2cncc(F)c2)c1 (single isomer, unassigned) [Example 53, cis-N-(3-(5-fluoropyridin-3-yl)-4-(trifluoromethyl)phenyl)-3-methyl-6-azabicyclo[3.1.1]heptane-6-carboxamide]",0.06,0.0001 to 1
"Cc1ccc(NC(=O)N2C3C[C@@H]2C[C@@H](C(C)(C)O)C3)cc1-c1cncc(F)c1 [Example 14, trans-N-(3-(5-fluoropyridin-3-yl)-4-methylphenyl)-3-(2-hydroxypropan-2-yl)-6-azabicyclo[3.1.1]heptane-6-carboxamide]",23.9,> 10
"C[C@@H]1CC2C[C@@H](C1)N2C(=O)Nc1ccc(Cl)c(-c2cncc(F)c2)c1 (single isomer, unassigned) [Example 79, trans-N-(4-chloro-3-(5-fluoropyridin-3-yl)phenyl)-3-methyl-6-azabicyclo[3.1.1]heptane-6-carboxamide]",0.1,0.0001 to 1
"O=C(Nc1cccc(-c2cncc(F)c2)c1)N1C2CCCC1C2 [Example 73, N-[3-(5-fluoropyridin-3-yl)phenyl]-6-azabicyclo[3.1.1]heptane-6-carboxamide]",1.2,1 to 10
